Some results are limits rather than exact numbers.

For 22 molecules, IC50 results are on record in patent publication US8415469B2, “Compounds and methods for kinase modulation, and indications therefor” (Plexxikon Inc., priority 2005, dated 2013).

Common to all, as to assay type: biochemical
For one assay, the target named is T1, Stk6 (Homo sapiens, UniProt O14965).
T1 construct: purchased Invitrogen (Carlsbad, Calif.), screening service
T1 sequence (O14965 1-403): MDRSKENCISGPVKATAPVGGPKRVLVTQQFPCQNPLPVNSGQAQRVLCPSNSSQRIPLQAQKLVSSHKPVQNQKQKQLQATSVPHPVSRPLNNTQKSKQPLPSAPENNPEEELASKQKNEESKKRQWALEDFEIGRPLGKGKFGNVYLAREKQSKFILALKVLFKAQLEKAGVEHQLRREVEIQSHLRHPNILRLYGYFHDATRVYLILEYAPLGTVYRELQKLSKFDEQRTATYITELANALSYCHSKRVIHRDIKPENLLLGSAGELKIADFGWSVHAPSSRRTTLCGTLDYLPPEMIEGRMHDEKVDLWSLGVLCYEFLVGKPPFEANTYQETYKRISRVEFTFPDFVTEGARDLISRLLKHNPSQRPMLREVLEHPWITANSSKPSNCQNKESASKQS
Nature of the assay: Z'-Lyte FRET kinase assay (Invitrogen), Stk6. As to conditions: read-out: IC50, activity toward kinase Stk6.

The target of a further assay is T2, Zap70 (Homo sapiens, UniProt P43403).
T2 construct: P1868.pFastBac1 ZAP70 D327-G606 HIS, WT; His7 (HHHHHHH) (C); made in house
T2 sequence (P43403 with tags, fused parts or gaps): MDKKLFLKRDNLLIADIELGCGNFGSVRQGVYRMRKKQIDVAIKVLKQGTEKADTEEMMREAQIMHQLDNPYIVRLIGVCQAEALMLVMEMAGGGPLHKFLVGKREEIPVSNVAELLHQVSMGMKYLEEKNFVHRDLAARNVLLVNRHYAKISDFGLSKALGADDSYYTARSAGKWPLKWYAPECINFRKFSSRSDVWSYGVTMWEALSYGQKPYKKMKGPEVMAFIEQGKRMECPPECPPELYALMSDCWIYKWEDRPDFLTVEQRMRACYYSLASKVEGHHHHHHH
Nature of the assay: AlphaScreen kinase assay, Zap70. As to conditions: read-out: IC50, activity toward kinase Zap70. From the text:
AlphaScreen assay was used to screen additional kinases. The assay is similarly dependent on the phosphorylation of a peptide substrate. In this assay, an antibody that recognizes phosphorylated substrate is bound to an acceptor bead. The peptide substrate is attached to biotin, which binds to a donor head that contains streptavidin. Thus phosphorylated substrate is bound by antibody and streptavidin, bringing the donor and acceptor heads into close proximity when kinase is not inhibited. The donor produces singlet oxygen which results in emission from the acceptor when they are in close proximity. Conversely, when kinase is inhibited, the donor and acceptor beads are not associated and the emission from the acceptor is reduced.
AlphaScreen assays were done using compounds dissolved in DMSO to a concentration of 20 mM. The compounds were diluted accordingly to the desired final concentrations in each sample well, using 1:3 serial dilution for a total of 8 concentration points.

In the next assay the target is T3, FGFR1 (Homo sapiens, UniProt P11362, C488A/C584S).
T3 construct: P1351.pET N6 BI-PTP FGFR A458-E765-X C488A, C584S; made in house; host or cells: E. coli (PTP1B co-expressed)
Nature of the assay: AlphaScreen kinase assay, FGFR1. As to conditions: read-out: IC50, activity toward kinase FGFR.

The next assay addresses MAP4K4 (Homo sapiens, UniProt O95819). Nature of the assay: AlphaScreen kinase assay, MAP4K4. As to conditions: read-out: IC50, activity toward kinase MAP4K4.
The target of a further assay is T4, B-Raf (Homo sapiens, UniProt P15056).
T4 construct: purchased Upstate Biotechnology
Nature of the assay: AlphaScreen kinase assay, B-Raf. As to conditions: read-out: IC50, activity toward kinase B-Raf.

The target in another assay is T5, Fak (Homo sapiens, UniProt Q05397).
T5 construct: P1358.pFastBacHtb FAK S411-Q686-X; His6 with pFastBacHTb leader (TEV site) (N); made in house; host or cells: Sf9 (baculovirus)
Nature of the assay: AlphaScreen kinase assay, Fak. As to conditions: read-out: IC50, activity toward kinase Fak.

In the next assay the target is T6, Yes (Homo sapiens, UniProt P07947).
T6 construct: purchased Invitrogen (Carlsbad, Calif.), screening service
Nature of the assay: Z'-Lyte FRET kinase assay (Invitrogen), Yes. As to conditions: read-out: IC50, activity toward kinase Yes. An excerpt:
The effect of potential modulators of kinase activity can be measured in a variety of different assays known in the art. For example, direct radiometric, indirect FRET or AlphaScreen assays may be used to assess the level of phosphorylation of a substrate in the presence of test compounds in order to determine the inhibitory affect of the compound on the kinase. Invitrogen (Carlsbad, Calif.) uses a FRET based assay for Btk, EGFR, EphB2, Flt3, lrak4, Kdr, MAP2K1, MAPKAPK2, PDGFRB, PKC theta, Stk6 and Yes. For these assays, compounds of the invention were screened by Invitrogen using Z′-Lyte™ kinase assay.
Briefly, the Invitrogen kinase assay involves use of a specific peptide substrate optimized for each kinase, containing a fluorophore at each end that make up the FRET pair. The peptide sensitivity to proteolytic cleavage depends on phosphorylation of the peptide. Non-phosphorylated peptide is cleaved by a protease while peptide phosphorylated by the kinase is not cleaved. Cleavage of the peptide disrupts the FRET between the donor (coumarin) and acceptor (fluorescein) fluorophores, resulting in an increase in the ratio of donor emission to acceptor emission. The emission ratio of coumarin to fluorescein is used to assess the reaction progress. The extent of phosphorylation is determined from the emission ratio, which is low when the kinase is active (phosphorylated peptide is not cleaved, FRET pair connected) or higher for inhibited kinase (non-phosphorylated peptide is cleaved, FRET pair separated). Thus, the assay involves a kinase reaction in the presence of varying concentrations of a given compound, a development reaction with site specific protease, and detection of the fluorescent emission ratio of coumarin and fluorscein. […] Reaction conditions for each kinase are determined to provide optimal reaction times, incubation temperature, kinase and ATP concentrations. Test samples are made up in 1× kinase buffer (50 mM HEPES pH 7.5, 50 mM MgCl2, 5 mM EGTA, 0.05% BRIJ-35) and compound at desired concentration prepared in DMSO such that the final DMSO is 1%. […] Typically, assay plates are prepared to 10 μl final volume per sample, adding 2.5 μl of compound at 4× the desired concentration in 4% DMSO (serial dilution of compound provides concentration curve), 5 μl of the desired kinase mixed with Z′-LYTE™ peptide substrate (2× in 2× kinase buffer, final peptide at 2 μM), and 2.5 μl of 4×ATP solution. All kinase except for MAP2K1 were at 10 μM ATP in the kinase reaction, while MAP2K1 was at 100 μM. Samples are mixed and the kinase reaction is incubated 1 hour at room temperature, after which 5 μl of development solution is added and mixed. After incubation for another 1 hour at room temperature, 5 μl of stop reagent is added to each sample and mixed. The fluorescence signals are measured to determine the emission ratio.

For the next assay, the target named is T7, Kit (Homo sapiens, UniProt P10721).
T7 construct: P1332.N6 BI PTP KIT M552-K948-X COD; His6 (N); made in house; host or cells: E. coli (PTP1B co-expressed)
Nature of the assay: AlphaScreen kinase assay, Kit. As to conditions: read-out: IC50, activity toward kinase Kit.

The target of another assay is T8, Ret (Homo sapiens, UniProt P07949).
T8 construct: P1378.pET-SF BI-PTP RET H661-R1012 HIS; made in house
T8 sequence (P07949 with tags, fused parts or gaps): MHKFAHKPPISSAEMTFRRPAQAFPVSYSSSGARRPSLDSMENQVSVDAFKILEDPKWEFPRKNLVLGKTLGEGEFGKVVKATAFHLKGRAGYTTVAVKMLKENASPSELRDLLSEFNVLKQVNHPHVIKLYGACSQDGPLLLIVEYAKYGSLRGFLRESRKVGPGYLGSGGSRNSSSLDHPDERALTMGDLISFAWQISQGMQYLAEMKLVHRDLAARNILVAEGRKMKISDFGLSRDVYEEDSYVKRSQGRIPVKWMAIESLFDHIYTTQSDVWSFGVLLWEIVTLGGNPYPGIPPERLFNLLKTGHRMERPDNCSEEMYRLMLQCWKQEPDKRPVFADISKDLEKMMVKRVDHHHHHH
Nature of the assay: AlphaScreen kinase assay, Ret. As to conditions: read-out: IC50, activity toward kinase Ret.

In a further assay the target is T9, Jnk3 (Homo sapiens, UniProt P53779).
T9 construct: purchased Upstate Biotechnology
Nature of the assay: AlphaScreen kinase assay, Jnk3. As to conditions: read-out: IC50, activity toward kinase Jnk3.

The next assay addresses T10, Flt1 (Homo sapiens, UniProt P17948).
T10 construct: P1826.pETN6 BI-PTP FLT1 M799-D1165-X WT; His6 (N); made in house; host or cells: E. coli (PTP1B co-expressed)
T10 sequence (P17948 with tags, fused parts or gaps): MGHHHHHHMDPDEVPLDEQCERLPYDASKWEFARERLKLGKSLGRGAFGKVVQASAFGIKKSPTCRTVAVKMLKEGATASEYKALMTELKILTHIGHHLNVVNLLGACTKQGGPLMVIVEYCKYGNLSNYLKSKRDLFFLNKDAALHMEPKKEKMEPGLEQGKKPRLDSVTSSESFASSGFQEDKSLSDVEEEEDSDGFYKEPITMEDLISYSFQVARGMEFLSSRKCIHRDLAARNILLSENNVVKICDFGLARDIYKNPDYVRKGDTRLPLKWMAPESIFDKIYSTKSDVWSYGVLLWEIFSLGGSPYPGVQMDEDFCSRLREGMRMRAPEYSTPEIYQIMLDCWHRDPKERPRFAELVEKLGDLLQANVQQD
Nature of the assay: AlphaScreen kinase assay, Flt1. As to conditions: read-out: IC50, activity toward kinase Flt1.

A further assay deals with T11, B-Raf V600E (Homo sapiens, UniProt P15056, V600E).
T11 construct: P4254. pFastBacBD-CDC37 BRAF D437-K722-X, V600E; His6 with pFastBac HT leader (TEV site) (N); made in house; host or cells: Sf9 (baculovirus; chaperone CDC37 co-expressed)
Nature of the assay: AlphaScreen kinase assay, B-Raf V600E. As to conditions: read-out: IC50, activity toward kinase B-Raf V600E.

Sequence of MAP4K4 (O95819 whole entry): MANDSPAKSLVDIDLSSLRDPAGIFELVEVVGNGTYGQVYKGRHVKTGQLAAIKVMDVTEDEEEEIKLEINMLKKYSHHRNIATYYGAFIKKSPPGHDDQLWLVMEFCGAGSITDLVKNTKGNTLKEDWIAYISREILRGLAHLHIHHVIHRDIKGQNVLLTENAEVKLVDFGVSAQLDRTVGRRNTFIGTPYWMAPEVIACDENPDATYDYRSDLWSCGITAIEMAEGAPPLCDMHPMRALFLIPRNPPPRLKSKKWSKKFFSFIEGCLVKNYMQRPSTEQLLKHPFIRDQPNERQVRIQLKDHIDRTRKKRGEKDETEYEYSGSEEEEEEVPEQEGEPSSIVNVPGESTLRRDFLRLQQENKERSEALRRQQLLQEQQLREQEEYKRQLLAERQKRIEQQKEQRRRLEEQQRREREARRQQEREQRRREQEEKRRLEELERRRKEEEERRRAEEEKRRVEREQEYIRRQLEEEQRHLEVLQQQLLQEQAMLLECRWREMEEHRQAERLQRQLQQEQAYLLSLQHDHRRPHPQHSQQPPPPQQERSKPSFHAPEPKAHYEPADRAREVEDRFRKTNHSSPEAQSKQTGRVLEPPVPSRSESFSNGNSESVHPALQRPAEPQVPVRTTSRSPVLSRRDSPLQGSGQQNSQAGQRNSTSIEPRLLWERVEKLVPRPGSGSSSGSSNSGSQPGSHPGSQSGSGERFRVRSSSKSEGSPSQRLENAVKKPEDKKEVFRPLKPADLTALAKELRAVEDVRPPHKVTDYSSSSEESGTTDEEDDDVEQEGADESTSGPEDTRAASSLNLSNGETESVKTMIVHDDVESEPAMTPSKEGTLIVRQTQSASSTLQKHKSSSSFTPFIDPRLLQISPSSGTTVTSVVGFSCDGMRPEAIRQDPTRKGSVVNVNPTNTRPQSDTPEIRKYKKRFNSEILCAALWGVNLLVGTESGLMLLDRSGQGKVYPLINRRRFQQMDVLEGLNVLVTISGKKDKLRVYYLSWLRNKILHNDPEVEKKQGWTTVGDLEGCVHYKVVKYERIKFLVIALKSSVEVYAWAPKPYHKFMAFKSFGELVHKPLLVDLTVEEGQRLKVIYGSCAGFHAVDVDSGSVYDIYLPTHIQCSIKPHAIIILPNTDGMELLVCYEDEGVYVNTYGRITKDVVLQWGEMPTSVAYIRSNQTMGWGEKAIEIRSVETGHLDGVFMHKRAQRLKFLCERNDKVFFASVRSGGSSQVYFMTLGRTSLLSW
T7 sequence (P10721 with tags, fused parts or gaps): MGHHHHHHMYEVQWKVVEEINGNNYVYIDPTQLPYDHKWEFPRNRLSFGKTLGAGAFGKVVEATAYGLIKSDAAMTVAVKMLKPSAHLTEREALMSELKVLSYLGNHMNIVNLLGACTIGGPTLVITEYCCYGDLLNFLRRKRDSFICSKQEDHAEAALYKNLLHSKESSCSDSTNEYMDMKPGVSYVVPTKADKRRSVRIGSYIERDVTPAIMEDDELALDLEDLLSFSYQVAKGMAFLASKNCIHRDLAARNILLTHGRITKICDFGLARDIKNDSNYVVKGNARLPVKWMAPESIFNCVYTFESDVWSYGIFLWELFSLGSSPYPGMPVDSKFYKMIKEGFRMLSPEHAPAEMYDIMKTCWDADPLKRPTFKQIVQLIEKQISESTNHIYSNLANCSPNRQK
T5 sequence (Q05397 411-686): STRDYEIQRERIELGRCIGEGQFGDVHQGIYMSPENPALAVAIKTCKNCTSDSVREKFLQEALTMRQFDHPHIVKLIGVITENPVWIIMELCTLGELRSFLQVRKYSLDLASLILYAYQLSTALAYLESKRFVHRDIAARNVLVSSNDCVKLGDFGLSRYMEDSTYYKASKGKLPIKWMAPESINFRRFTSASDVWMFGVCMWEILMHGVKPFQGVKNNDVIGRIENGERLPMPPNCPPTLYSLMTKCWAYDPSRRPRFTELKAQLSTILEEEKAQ
T6 sequence (P07947 whole entry): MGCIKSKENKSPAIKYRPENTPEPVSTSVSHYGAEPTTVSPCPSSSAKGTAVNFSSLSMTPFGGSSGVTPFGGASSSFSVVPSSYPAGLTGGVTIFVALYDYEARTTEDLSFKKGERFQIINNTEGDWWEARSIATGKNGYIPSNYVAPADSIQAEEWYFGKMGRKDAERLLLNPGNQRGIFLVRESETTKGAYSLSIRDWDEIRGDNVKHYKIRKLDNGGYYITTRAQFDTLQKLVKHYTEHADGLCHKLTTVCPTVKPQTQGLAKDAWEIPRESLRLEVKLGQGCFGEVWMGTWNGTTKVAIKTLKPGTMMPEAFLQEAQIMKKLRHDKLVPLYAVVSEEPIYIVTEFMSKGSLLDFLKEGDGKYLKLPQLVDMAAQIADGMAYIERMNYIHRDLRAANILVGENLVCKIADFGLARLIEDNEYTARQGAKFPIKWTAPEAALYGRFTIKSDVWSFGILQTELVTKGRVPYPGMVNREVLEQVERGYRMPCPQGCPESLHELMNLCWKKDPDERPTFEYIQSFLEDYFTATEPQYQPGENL
T11 sequence (P15056 with tags, fused parts or gaps V600E): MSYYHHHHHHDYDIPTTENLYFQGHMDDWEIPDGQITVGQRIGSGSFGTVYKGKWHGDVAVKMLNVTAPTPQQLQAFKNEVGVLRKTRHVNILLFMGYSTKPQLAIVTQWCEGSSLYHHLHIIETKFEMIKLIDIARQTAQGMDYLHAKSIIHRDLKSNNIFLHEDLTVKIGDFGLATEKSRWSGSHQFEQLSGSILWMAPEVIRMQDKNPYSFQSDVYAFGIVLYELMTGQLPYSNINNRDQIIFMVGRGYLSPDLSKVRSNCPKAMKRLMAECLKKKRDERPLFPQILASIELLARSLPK
T3 sequence (P11362 458-765 C488A/C584S): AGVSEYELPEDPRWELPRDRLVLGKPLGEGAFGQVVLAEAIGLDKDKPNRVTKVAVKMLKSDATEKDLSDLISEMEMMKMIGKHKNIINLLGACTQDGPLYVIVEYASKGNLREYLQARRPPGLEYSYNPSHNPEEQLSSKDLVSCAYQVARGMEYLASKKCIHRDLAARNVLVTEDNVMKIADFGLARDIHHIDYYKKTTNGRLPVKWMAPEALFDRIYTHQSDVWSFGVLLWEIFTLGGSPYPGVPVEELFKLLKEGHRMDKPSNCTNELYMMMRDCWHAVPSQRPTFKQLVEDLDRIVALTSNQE
T4 sequence (P15056 whole entry): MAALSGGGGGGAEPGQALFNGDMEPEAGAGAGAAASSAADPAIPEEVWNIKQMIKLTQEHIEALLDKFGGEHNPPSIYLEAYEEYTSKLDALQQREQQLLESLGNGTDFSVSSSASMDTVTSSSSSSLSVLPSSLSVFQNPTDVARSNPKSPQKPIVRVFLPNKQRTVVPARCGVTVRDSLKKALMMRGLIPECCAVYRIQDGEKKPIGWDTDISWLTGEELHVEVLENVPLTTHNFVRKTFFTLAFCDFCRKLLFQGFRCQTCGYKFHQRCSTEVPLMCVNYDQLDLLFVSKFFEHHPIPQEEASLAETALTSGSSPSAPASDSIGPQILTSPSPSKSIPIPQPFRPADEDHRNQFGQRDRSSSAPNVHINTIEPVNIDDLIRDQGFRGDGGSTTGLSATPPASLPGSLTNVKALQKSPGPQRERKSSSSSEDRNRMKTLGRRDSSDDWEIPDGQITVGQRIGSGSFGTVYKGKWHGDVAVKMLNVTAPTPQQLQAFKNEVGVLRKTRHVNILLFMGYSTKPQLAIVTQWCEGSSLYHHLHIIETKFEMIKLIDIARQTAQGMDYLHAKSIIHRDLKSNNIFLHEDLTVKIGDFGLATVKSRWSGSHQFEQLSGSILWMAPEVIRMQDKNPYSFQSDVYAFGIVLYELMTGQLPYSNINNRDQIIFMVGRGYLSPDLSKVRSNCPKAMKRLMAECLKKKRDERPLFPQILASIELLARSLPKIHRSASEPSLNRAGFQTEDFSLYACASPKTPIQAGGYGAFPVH
T9 sequence (P53779 whole entry): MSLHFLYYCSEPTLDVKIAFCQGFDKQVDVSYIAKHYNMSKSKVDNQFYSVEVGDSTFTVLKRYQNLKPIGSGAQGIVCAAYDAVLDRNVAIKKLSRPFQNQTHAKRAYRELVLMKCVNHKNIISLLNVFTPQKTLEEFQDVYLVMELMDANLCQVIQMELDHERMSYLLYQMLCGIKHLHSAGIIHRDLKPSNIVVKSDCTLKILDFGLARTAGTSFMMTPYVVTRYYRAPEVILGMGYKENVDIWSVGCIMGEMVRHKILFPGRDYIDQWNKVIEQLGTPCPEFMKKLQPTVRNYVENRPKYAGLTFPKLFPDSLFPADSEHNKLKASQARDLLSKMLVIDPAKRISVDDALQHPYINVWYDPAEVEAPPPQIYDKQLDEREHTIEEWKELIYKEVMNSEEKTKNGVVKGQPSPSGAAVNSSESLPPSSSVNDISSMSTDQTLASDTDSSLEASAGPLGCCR

In the case of `O=S(=O)(NCc1c[nH]c2ncccc12)c1ccc(-c2cccc(CO)c2)cc1` [Compound P-0193], the IC50 at Stk6 and on Zap70 was at most 10 µM each time.

Consider `Fc1ccc(Cc2c[nH]c3ncccc23)cc1` [Compound P-0220], for which the IC50 at FGFR1 and at MAP4K4 was at most 10 µM in each case.

Turning to `Cc1[nH]c2ncccc2c1-c1cccs1` [Compound P-0249], the IC50 at Stk6 and on Zap70 was at most 10 µM in each case. For the molecule `c1ccc(Cc2c[nH]c3ncccc23)cc1` [Compound P-0256], the IC50 at MAP4K4 is at most 10 µM. For `c1ccc(Oc2ccc(Cc3c[nH]c4ncccc34)cc2)cc1` [Compound P-0310], the IC50 at B-Raf, on Fak, at Yes and on Zap70 was at most 10 µM throughout. In the case of `COc1ccc(F)cc1Cc1c[nH]c2ncccc12` [Compound P-0348], the IC50 at Stk6 and on Zap70 was at most 10 µM throughout. On to `Cc1cc(C(=O)c2c[nH]c3ncccc23)n(C)n1` [Compound P-0357], for which the IC50 on MAP4K4 is at most 10 µM. On to `O=C(c1cccc(F)c1)c1c[nH]c2ncccc12` [Compound P-0367], for which the IC50 on Kit, on Ret and at MAP4K4 was at most 10 µM each time. Take `O=C(c1cccc(F)c1)c1c[nH]c2ncc(-c3ccsc3)cc12` [Compound P-0378]: the IC50 on Jnk3, at Kit, on Ret and on Zap70 was at most 10 µM each time. For `O=C(c1ccccc1)c1c[nH]c2ncccc12` [Compound P-0402], the IC50 at Kit and at MAP4K4 was at most 10 µM in each case. In the case of `Clc1cccc(-c2c[nH]c3ncccc23)c1` [Compound P-0449], the IC50 on MAP4K4 was at most 10 µM. In the case of `COc1ccc(-c2c[nH]c3ncccc23)c(OC)c1` [Compound P-0477], the IC50 at Flt1 and at MAP4K4 was at most 10 µM each time. As to `Cc1[nH]c2ncccc2c1-c1ccccc1` [Compound P-0488], on MAP4K4, the IC50 was at most 10 µM. Take `O=C(c1cccnc1)c1c[nH]c2ncccc12` [Compound P-0518]: the IC50 on MAP4K4 is at most 10 µM. Still for that read-out and setting: as for `CCOc1ccccc1-c1c[nH]c2ncccc12` [Compound P-0527], the figure is at most 10 µM. As for `Cc1[nH]c2ncccc2c1-c1ccncc1` [Compound P-0537], the IC50 at MAP4K4 was at most 10 µM. The same measure, in the same setting: under `Cc1[nH]c2ncccc2c1-c1ccc(-c2ccccc2)cc1` [Compound P-0601] stands at most 10 µM; under `NC(=O)c1ccc(-c2c(CN3CCOCC3)[nH]c3ncccc23)cc1` [Compound P-0695], at most 10 µM.

Turning to `CN1CCN(Cc2ccc(C(=O)Nc3ccc(Cc4c[nH]c5ncccc45)cc3)cc2)CC1` [Compound P-0795], the IC50 at Fak, at Ret and at Zap70 was at most 10 µM in each case. As to `COc1ccc(-c2c(C)[nH]c3ncccc23)cc1OC` [Compound P-0862], at MAP4K4, the IC50 was at most 10 µM.

Take `c1cnc2ccc(Nc3ccnc4[nH]ccc34)cc2c1` [Compound P-1042]: the IC50 on MAP4K4 is at most 10 µM. Take `O=C(c1cc(Cl)cc(Cl)c1)c1c[nH]c2ncc(-c3cccnc3)cc12` [Compound P-1414, (3,5-Dichloro-phenyl)-(5-pyridin-3-yl-1H-pyrrolo[2,3-b]pyridin-3-yl)-methanone]: the IC50 at B-Raf V600E, on Kit and at MAP4K4 was at most 10 µM each time.
